Measurements from patent US7118873B2, “Polynucleotides encoding cellular transporters and methods of use thereof” (The University of Connecticut, priority 2000, dated 2006).
Read-outs that look alike come from different tables or passages of the source.

Legend:
INDY = target: T1, INDY (Drosophila melanogaster, UniProt Q9VVT2); experiment: Inhibition of [14C] succinate uptake in Xenopus oocytes injected with Indy mRNA; format: cell-based
T1 construct: expressed in transfected cells; host or cells: Xenopus laevis oocytes (stage V and VI) injected with Indy mRNA
T1 sequence (Q9VVT2 19-590 limits assumed): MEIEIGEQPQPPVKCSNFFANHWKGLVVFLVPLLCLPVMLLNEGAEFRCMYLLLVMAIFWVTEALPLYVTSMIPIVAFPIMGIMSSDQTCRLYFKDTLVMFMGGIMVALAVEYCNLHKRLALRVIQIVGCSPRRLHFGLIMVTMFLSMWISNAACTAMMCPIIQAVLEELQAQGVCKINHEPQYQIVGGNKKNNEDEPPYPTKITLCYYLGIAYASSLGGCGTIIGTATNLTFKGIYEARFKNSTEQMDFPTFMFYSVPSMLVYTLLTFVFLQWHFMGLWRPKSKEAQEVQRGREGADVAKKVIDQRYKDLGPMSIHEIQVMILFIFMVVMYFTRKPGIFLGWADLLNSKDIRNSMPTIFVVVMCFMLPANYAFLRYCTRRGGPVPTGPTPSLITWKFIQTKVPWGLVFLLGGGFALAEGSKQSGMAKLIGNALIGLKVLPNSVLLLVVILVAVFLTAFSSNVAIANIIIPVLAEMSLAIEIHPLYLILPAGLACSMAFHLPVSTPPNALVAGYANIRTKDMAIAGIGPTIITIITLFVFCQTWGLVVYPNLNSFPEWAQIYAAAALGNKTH
Procedure: Stage V and VI oocytes from Xenopus laevis were dissected and defoliculated. The oocytes were injected with 25–50 ng of Indy mRNA 1 day after isolation. Nutrient uptake was measured 6 to 7 days later. The oocytes were maintained at 18° C. in Barth's solution containing […] gentamycin sulfate, 2.5 mM sodium pyruvate, and 5% heat-inactivated horse serum (Coady et al., Arch. Biochem. Biophys. 283: 130–134, 1990; Pajor and Wright, J. Biol. Chem 26:, 3557–3560, 1992).
Transport measurements were performed as in Pajor, J. Biol. Chem. 270: 5779–5785, 1995. Groups of oocytes were first washed in choline buffer to remove the serum. Transport was initiated by adding 0.4 ml of [^14C] succinate or [^14C] citrate in buffer A. Buffer A comprises 100 mM NaCl, 2 mM KCl, 1 mM MgCl2, and 10 mM HEPES-Tris (pH 7.5). Buffer B is the same as buffer A except the NaCl is replaced by 100 mM choline Cl. For other cation replacement studies, the sodium was replaced by equimolar amounts of the other cations, as their chloride salts. At the completion of the transport time, the nutrient uptake was stopped with 4 washes of 4 ml of ice-cold buffer B. To count the amount of [^14C] taken up by the oocyte, each oocyte was dissolved in 0.5 ml of 10% SDS, and the [^14C] assayed by scintillation counting.
Studies of sodium dicarboxylate cotransporters have indicated a broad range of specificity for di- and tri-carboxylic acids and the exclusion of monocarboxylic acids. The transport specificity of Indy was thus determined as the ability of various compounds to inhibit the uptake of [^14C] succinate. The test inhibitors were added at a concentration of 1 mM, approximately a 100-fold excess of inhibitor.
The relative affinity of INDY for succinate and citrate was determined by adding a constant amount of [^14C] succinate and increasing concentrations of citrate to oocytes expressing INDY.
To further characterize INDY, inhibitors of transport were added to the Indy oocyte system. P-aminohippuric Acid (PAH) is a reference compound used to study transport mechanisms. 4,4′-Diisothyocyanostilbene-2,2′-disulfonic acid (DIDS) is a specific inhibitor of channels. Phloretin is an inhibitor of channels that is known to block protein kinase C.

[1] = target: T2, rat sodium dicarboxylate cotransporter (Rattus norvegicus, UniProt P70545); conditions: cited from earlier work
T2 sequence (P70545 1-587): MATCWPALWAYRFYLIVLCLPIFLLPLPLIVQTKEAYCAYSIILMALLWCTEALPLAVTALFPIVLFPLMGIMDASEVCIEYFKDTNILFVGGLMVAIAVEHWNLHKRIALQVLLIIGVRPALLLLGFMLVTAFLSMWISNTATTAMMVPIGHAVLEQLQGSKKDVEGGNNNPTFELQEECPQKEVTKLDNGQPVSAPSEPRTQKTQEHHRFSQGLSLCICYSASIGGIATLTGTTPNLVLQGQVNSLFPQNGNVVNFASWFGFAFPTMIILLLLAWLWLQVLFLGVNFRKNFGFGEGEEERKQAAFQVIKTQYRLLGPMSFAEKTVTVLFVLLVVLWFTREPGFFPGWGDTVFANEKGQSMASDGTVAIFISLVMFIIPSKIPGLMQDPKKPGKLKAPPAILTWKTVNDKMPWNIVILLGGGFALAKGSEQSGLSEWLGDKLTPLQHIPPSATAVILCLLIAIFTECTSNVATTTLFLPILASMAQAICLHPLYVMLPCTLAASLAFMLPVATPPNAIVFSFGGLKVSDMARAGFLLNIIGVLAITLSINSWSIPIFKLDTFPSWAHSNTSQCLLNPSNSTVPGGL

[2] = test inhibitor at 1 mM, approximately 100-fold excess, FIG. 14

For `O=C(O)/C=C/C(=O)O` [fumarate], the “inhibition of [14C] succinate uptake” value (INDY; [2]) was roughly 100%.
For `O=C(O)CC(O)(CC(=O)O)C(=O)O` [citrate], the inhibition at 100 µM (INDY; citrate at 0.1 mM, FIG. 17) was roughly 50%, the inhibition at 1000 µM (INDY; citrate at 1 mM, FIG. 17, read-out: inhibition of succinate uptake) was roughly 90% and the “inhibition of succinate uptake (in words)” value (INDY; citrate at 10 mM, FIG. 17) was “completely inhibits”. For the same compound, the inhibition at 1000 µM (INDY; test inhibitor at 1 mM, approximately 100-fold excess, FIG. 14, read-out: inhibition of [14C] succinate uptake) was roughly 100%.
In the case of `O=C(O)CCC(=O)C(=O)O` [alpha-ketoglutarate], the “inhibition of [14C] succinate uptake” value (INDY; [2]) is reported as roughly 100%.
In the case of `N[C@@H](CCC(=O)O)C(=O)O` [glutamate], the “inhibition of succinate transport (in words)” value (INDY; [2]) is reported as “little inhibition”.
For `O=C(O)CCC(=O)O` [succinate], the “inhibition of [14C] succinate uptake” value (INDY; [2]) was roughly 100%.
With `CC(O)C(=O)O` (centres unmarked) [lactate] the “inhibition of succinate transport (in words)” value (INDY; [2]) was “little inhibition”.
For `O=S(=O)(O)O` [sulfate], the “inhibition of succinate transport (in words)” value (INDY; [2]) was “little inhibition”.
In the case of `O=C(CCc1ccc(O)cc1)c1c(O)cc(O)cc1O` [phloretin, Phloretin], the “effect on succinate transport (in words)” value (INDY; 1 mM phloretin, FIG. 18) is listed as “no effect” and the “effect on inward and outward currents in sodium-dependent transport” value [1] is listed as “inhibit both inward and outward currents”.
For `O=S(=O)(O)c1cc(N=C=S)ccc1C=Cc1ccc(N=C=S)cc1S(=O)(=O)O` [DIDS, 4,4′-Diisothyocyanostilbene-2,2′-disulfonic acid], the “inhibition of succinate transport” value (INDY; 0.1 mM DIDS, FIG. 18) was 80%.
In the case of `Nc1ccc(C(=O)NCC(=O)O)cc1` [PAH, P-aminohippuric Acid], the “effect on succinate transport (in words)” value (INDY; 10 mM PAH, FIG. 18) is reported as “no effect”.
